Source: ChEMBL document CHEMBL1201862, “PubChem BioAssay data set” (2004)
The source made the active and inactive calls. Rule as the data show it, for most assays here: actives have a measured EC50 and inactives only a lower limit.

What was measured:
[1] = tested on: Streptococcus sp. 'group A'; assay: growth inhibition of control SK(-) GAS strain, dose response, counter-screen for streptokinase expression inhibitor project, luminescence, kanamycin, BacTiterGlo, confirmation (AID 1900); assay type: functional, organism-based
Streptococcus = assay: Group A Streptococcus viability loss, dose response, counter-screen for streptokinase expression inhibitor project, luminescence, BacTiterGlo (AID 1915); assay type: functional, organism-based;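 also: potency for reduction of bacterial viability or growth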
Streptokinase A = biological target: T1, Streptokinase A (Streptococcus pyogenes serotype M1, UniProt P10520); assay: S. pyogenes streptokinase expression inhibitors, potency, dose response, plasminogen activation absorbance, OD405 (AID 1914); assay type: functional, Streptococcus pyogenes M1 GAS;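 also: secreted streptokinase activity via plasminogen activation per viability signal from cell pellet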
T1 sequence (P10520 whole entry): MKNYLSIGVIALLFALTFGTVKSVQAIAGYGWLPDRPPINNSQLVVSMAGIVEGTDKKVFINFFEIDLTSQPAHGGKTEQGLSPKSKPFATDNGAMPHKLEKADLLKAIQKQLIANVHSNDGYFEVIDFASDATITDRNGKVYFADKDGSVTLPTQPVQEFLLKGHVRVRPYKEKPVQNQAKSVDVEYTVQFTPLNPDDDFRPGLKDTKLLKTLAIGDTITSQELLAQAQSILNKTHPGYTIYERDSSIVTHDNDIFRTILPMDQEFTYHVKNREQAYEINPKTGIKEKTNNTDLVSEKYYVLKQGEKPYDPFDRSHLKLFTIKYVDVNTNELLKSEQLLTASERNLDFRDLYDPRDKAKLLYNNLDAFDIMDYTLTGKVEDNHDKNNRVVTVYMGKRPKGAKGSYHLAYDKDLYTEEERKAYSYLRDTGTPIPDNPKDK

[2] = Luminescence Cell-Based Dose Retest to Confirm Inhibitors of Cancer Stem Cells. [Related pubchem assays (depositor defined):AID2717, AID2721]; assay type: functional; conditions: Homo sapiens
[3] = biological target: T2, Replicative DNA helicase DnaB (Mycobacterium tuberculosis, UniProt P9WMR3); assay: DnaB intein splicing inhibitors, dose response, biochemical, cell-free fluorescence (AID 449749); assay type: functional
T2 sequence (P9WMR3 whole entry): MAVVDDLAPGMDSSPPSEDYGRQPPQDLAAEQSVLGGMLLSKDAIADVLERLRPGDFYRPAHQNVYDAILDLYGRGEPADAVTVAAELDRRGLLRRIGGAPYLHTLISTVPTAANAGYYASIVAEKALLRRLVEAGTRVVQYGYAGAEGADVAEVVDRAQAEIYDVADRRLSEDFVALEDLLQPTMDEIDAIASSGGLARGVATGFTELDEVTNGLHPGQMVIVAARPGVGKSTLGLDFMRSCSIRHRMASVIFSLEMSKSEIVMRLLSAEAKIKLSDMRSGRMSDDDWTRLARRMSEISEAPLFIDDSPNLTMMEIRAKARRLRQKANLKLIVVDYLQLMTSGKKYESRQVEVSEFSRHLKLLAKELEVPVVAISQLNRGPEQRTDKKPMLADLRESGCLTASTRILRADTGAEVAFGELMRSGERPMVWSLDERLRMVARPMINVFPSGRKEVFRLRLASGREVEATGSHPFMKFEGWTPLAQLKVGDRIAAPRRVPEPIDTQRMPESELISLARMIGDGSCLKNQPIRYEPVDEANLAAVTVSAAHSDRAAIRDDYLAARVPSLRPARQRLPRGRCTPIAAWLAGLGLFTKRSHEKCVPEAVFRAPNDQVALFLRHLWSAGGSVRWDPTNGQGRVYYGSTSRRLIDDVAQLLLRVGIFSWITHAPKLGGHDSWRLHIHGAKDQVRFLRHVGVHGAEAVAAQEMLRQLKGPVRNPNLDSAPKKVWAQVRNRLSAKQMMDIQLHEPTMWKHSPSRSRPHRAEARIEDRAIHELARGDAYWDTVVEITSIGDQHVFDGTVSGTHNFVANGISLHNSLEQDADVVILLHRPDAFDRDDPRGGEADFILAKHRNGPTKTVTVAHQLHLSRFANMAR

Protein RecA = biological target: T3, Protein RecA (Mycobacterium tuberculosis, UniProt P9WHJ3); assay: Fluorescence Cell-Free Homogeneous Dose Retest to Identify Inhibitors of RecA-Intein Splicing Activity. [Related pubchem assays (depositor defined):AID2097, AID2223, AID489010, AID492950]; assay type: functional
T3 sequence (P9WHJ3 whole entry): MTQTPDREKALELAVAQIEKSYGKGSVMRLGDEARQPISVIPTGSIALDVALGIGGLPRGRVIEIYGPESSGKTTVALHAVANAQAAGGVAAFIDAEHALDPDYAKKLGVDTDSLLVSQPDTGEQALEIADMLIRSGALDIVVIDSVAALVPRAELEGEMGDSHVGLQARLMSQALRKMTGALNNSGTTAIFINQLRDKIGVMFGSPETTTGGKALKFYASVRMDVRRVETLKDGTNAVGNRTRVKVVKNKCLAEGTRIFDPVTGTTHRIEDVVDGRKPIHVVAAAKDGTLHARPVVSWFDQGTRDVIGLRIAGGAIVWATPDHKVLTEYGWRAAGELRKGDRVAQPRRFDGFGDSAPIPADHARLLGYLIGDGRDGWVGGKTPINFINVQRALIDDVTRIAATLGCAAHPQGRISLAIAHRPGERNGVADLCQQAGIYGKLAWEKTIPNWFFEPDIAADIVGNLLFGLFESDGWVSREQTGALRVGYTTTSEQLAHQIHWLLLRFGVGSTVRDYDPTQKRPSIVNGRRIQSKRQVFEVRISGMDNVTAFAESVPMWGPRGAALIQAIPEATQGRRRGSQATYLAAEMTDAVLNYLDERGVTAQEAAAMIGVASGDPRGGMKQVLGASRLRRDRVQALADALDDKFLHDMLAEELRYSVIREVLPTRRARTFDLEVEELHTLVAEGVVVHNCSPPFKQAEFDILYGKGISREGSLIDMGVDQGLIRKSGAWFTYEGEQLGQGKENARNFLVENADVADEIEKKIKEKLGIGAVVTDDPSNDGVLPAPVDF

[4] = inhibitors of firefly luciferase expression or activity, dose response, H4 neuroglioma cells, luminescence (AID 1990); assay type: functional, cell-based
[5] = inhibitors of SNCA 5'UTR-driven reporter translation, confirmation, H4 neuroglioma cells, luminescence (AID 1988); assay type: functional, cell-based
[6] = Luminescence Cell-Based Dose Response HTS to Identify Inhibitors of 5'UTR Stem-Loop Driven Prion Protein mRNA Translation in H4 Neuroglioblastoma Cells. [Related pubchem assays: 1827 (Project Summary), 1813 (Primary HTS)]; assay type: functional
[7] = cytotoxicity toward NIH3T3 fibroblasts, dose response, counter-screen, cell-based, ATP luminescence, mouse fibroblasts (AID 2010); assay type: functional;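 also: cells exposed to compound for about 90 hours before reading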
[8] = inhibitors of intracellular T. cruzi replication, confirmation, NIH3T3 host cells, beta-gal luminescence (AID 2044); assay type: functional, cell-based;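 also: intracellular parasites grown in NIH/3T3 mouse fibroblasts as host cells; luminescent beta-galactosidase reporter signal from transgenic T. cruzi replicating inside host cells; inhibitors lower the luminescence signal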

Structure (SMILES)	AC50 [2]	EC50 [4]	EC50 [5]	EC50 [6]	further results
CCC(C)N1C(=O)/C(=C/NNc2ccccc2)C(=O)NC1=S (stereo unspecified)	2.24 µM (active)				EC50 [1]: > 150 µM (not active); EC50 (Streptococcus): > 150 µM (not active); EC50 (Streptokinase A): > 150 µM (not active)
CC(=O)c1ccc(OC(=O)c2cccs2)cc1					AC50 [3]: 24.3 µM (active); EC50 (Protein RecA): 12.2 µM (active)
O=C1c2ccccc2C(=O)C12Cc1ccccc1N1CCN(c3ccccc3)CC12 (stereo unspecified)		> 120 µM (not active)	> 120 µM (not active)	> 120 µM (not active)	
COC(=O)Nc1nc(-c2ccccc2)c(C(=O)c2ccc(Cl)cc2)s1		7.45 µM (active)	0.179 µM (active)	7.87 µM (active)	
COc1ccc(/C=C/c2cc(C(=O)O)c3ccccc3n2)cc1		3.67 µM (active)	6.45 µM (active)	2.83 µM (active)	
CCc1ccc(Nc2nc(N)nc(CSc3nc4ccccc4s3)n2)cc1	> 195 µM (inactive)				
CC(C)n1nc(C(=O)Nc2nnc(SCc3c(Cl)cccc3Cl)s2)c2ccccc2c1=O					EC50 [1]: 2.09 µM (active); EC50 (Streptococcus): 116 µM (active); EC50 (Streptokinase A): > 150 µM (not active)
CCc1nnc(NC(=O)c2ccc(S(=O)(=O)N(C)Cc3ccccc3)cc2)o1		> 120 µM (not active)	> 120 µM (not active)	> 120 µM (not active)	
C[C@@H]1CN([C@H](C)CO)C(=O)c2cc(NC(=O)Nc3ccc(C(F)(F)F)cc3)ccc2O[C@H]1CN(C)S(=O)(=O)c1ccc(Cl)cc1	2.71 µM (active)				
O=C(CCCN1C(=O)/C(=C\c2cccs2)SC1=S)Nc1ccc(O)cc1C(=O)O					AC50 [3]: 17.7 µM (active); EC50 (Protein RecA): 12.7 µM (active)
Oc1nc(CN2CCN(c3ccccn3)CC2)nc2c(Br)cc(Br)cc12	2.76 µM (active)				
CCCc1nnc(NC(=O)c2c(O)c3cccc4c3n(c2=O)CCC4)s1		99.5 µM (active)	> 120 µM (not active)	> 120 µM (not active)	EC50 [1]: 2.53 µM (active); EC50 (Streptococcus): 3.1 µM (active)
CCOC(=O)c1sc2nc(CC(=O)OC)nc(N3CCN(c4ccc(OC)cc4)CC3)c2c1C		> 120 µM (not active)	89.9 µM (active)	> 120 µM (not active)	EC50 [7]: > 60 µM (not active); EC50 [8]: 1.91 µM (active)
Cc1ccc(Cl)cc1N1CCN(C(CC(C)C)c2nnnn2CC2CCCO2)CC1 (stereo unspecified)	0.631 µM (active)				
CCCC(O)(c1ccc(Br)cc1)C(CN1CCOCC1)c1ccc(Cl)cc1 (stereo unspecified)					EC50 [1]: 7.94 µM (active); EC50 (Streptococcus): 72.1 µM (active); EC50 (Streptokinase A): 12.1 µM (active)
Cc1n[nH]c2c1C(CC(C)C)C(C#N)=C(N)O2 (stereo unspecified)					AC50 [3]: 13.1 µM (active); EC50 (Protein RecA): 3.84 µM (active)
Cn1cnc([N+](=O)[O-])c1Sc1ccc(C(C)(C)C)cc1					AC50 [3]: 13.6 µM (active); EC50 (Protein RecA): 14.1 µM (active)
CC(C)[C@@H]1CC[C@@H](C)c2c1n[nH]c2-c1ccccc1	4.99 µM (active)				
N#Cc1nc(Cc2cccc3ccccc23)oc1N1CCCCC1		16.2 µM (active)	> 120 µM (not active)	> 120 µM (not active)	
O=C1N=C(Nc2ccc(Cl)cc2)SC1Cc1cccc(Cl)c1Cl (stereo unspecified)	13.2 µM (active)				EC50 [1]: 3.91 µM (active); EC50 (Streptococcus): > 150 µM (not active); EC50 (Streptokinase A): 131 µM (active)
CCOC(=O)C(C#N)C(c1cccnc1)c1c(C)[nH][nH]c1=O (stereo unspecified)					AC50 [3]: 6.32 µM (active); EC50 (Protein RecA): 1.81 µM (active)
CCCc1n[nH]c2c1C(c1ccccc1OCC)C(C#N)=C(N)O2 (stereo unspecified)					AC50 [3]: 237 µM (active); EC50 (Protein RecA): 9.01 µM (active)
Nc1nc(NCc2ccco2)nc(Nc2ccc(F)cc2)c1[N+](=O)[O-]		35 µM (active)	> 120 µM (not active)	> 120 µM (not active)	
Cc1cccc(C)c1NC(=S)N/N=C/c1ccc(OCCC(C)C)cc1					EC50 [1]: 8.34 µM (active); EC50 [7]: > 60 µM (inconclusive); EC50 [8]: 2.02 µM (active); EC50 (Streptococcus): 21.9 µM (active); EC50 (Streptokinase A): 16.9 µM (active)
Nc1nc(NCCOCCO)nc(NC2CCCCC2)c1[N+](=O)[O-]		16.7 µM (active)	17.3 µM (active)	0.14 µM (active)	
CC1CCc2cccc3c2N1c1cc(C#N)c(C#N)cc1O3 (stereo unspecified)		8.54 µM (active)	33.4 µM (active)	88.7 µM (active)	
CC(=O)c1ccc(Oc2ncnc(N)c2[N+](=O)[O-])cc1		> 120 µM (not active)	11.2 µM (active)	13.6 µM (active)	
Cc1cc(N)n(-c2ccc(S(N)(=O)=O)cc2[N+](=O)[O-])n1	> 195 µM (inactive)				
Cc1ccc(Nc2nc(N)c([N+](=O)[O-])c(NCc3ccco3)n2)cc1C	6.48 µM (active)				
COc1ccc(-c2sc3ccc(N4CCOCC4)cc3c2C#CCCO)cc1	3 µM (active)				
